Drawing on US10793580B2, “Substituted pyrazoloazepin-8-ones and their use as phosphodiesterase inhibitors” (LEO Pharma A/S, priority 2016, dated 2020), this text covers IC50 for five molecules.

SMILES strings stand for the structures.

Sequence of human PDE4D catalytic domain (Q08499 380-740): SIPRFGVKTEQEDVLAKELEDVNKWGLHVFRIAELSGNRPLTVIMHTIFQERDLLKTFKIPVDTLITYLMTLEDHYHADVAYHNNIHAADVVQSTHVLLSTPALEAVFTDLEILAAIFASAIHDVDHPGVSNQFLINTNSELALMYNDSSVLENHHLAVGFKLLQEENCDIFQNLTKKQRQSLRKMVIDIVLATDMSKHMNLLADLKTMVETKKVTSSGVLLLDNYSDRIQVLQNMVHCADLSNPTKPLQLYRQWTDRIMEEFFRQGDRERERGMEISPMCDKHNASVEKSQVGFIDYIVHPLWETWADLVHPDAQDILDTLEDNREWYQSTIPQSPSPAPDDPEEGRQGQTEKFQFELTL

The assay has as its target human PDE4D catalytic domain (Homo sapiens (Human), UniProt Q08499). In words: PDE4 Assay (TR-FRET, FAM-cAMP cleavage). Format: biochemical. The conditions noted are these: human PDE4D catalytic domain (UniProt Q08499 [S380-L740]); 50% inhibition of substrate cleavage; read-out: PDE4 IC50 range. A digest of the protocol:
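PDE4D catalytic domain (S380-L740) incubated briefly with unlabelled cAMP plus FAM-cAMP and titrated compound. Reaction stopped with binding buffer holding metal-ion nanoparticles that bind AMP phospho groups and Tb donor, and AMP formation read by TR-FRET. IC50 versus controls, reported as ranges (nM).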
With `CCc1ccc(C(=O)OCC(C)(C)Cc2nn(CC)c3c2CC2(CCOCC2)CNC3=O)cc1` [Example 195, [3-(1-ethyl-8-oxo-spiro[6,7-dihydro-4H-pyrazolo[3,4-c]azepine-5,4′-tetrahydropyran]-3-yl)-2,2-dimethyl-propyl] 4-ethylbenzoate], the concentration for half-maximal inhibition (IC50) is < 100 nM.

With `CCn1nc(CCCOC(=O)C2CCN(C(=O)OC)CC2)c2c1C(=O)NCC1(CCOCC1)C2` [Example 263, [3-(1-ethyl-8-oxo-spiro[6,7-dihydro-4H-pyrazolo[3,4-c]azepine-5,4′-tetrahydro-pyran]-3-yl)propyl] 1-methoxy-carbonylpiperidine-4-carboxylate], the half-inhibitory concentration (IC50) is < 100 nM.

As for `CCn1nc(C[C@@H](C)COC(=O)c2ccc(C(=O)NC)cc2)c2c1C(=O)NCC1(CCOCC1)C2` [Example 170, [(2R)-3-(1-ethyl-8-oxo-spiro[6,7-dihydro-4H-pyrazolo[3,4-c]azepine-5,4′-tetrahydropyran]-3-yl)-2-methyl-propyl] 4-(methylcarbamoyl)benzoate], the IC50 was < 100 nM.

On to `CCn1nc(CCCOC(=O)c2cccc(S(=O)(=O)N3CCOCC3)c2)c2c1C(=O)NCC1(CCOCC1)C2` [Example 99, 3-(1-ethyl-8-oxo-spiro[6,7-dihydro-4H-pyrazolo[3,4-c]azepine-5,4′-tetrahydropyran]-3-yl)propyl 3-morpholinosulfonylbenzoate], for which the IC50 was < 100 nM.

Turning to `CCn1nc(CCOC(=O)C2CCCC2)c2c1C(=O)NCC1(CCOCC1)C2` [Example 134, 2-(1-ethyl-8-oxo-spiro-[6,7-dihydro-4H-pyrazolo-[3,4-c]azepine-5,4′-tetra-hydropyran]-3-yl)ethyl cyclopentanecarboxylate], the concentration for half-maximal inhibition (IC50) was < 100 nM.
